Results published in ChEMBL document CHEMBL6121052, “Design of ROS-Triggered Sesquiterpene Lactone SC Prodrugs as TrxR1 Covalent Inhibitors for the Treatment of Non-Small Cell Lung Cancer” (J Med Chem, 2025).
Calls of active or inactive are those of the source. The calls are words filed in the database; no cut-off is given here.

Columns and labels:
NSCLC [1] = experiment: Downregulation of TrxR1 expression in human NSCLC cells; assay type: functional, cell-based
NSCLC [2] = experiment: Downregulation of TrxR1 expression in human NSCLC cells by IHC analysis; assay type: functional, cell-based
A549 [3] = experiment: Inhibition of colony formation in human A549 cells assessed as reduction in colony number at 4 uM incubated for 14 days by crystal violet staining based analysis; assay type: functional, cell-based; conditions: time 14.0 day
A549 [4] = experiment: Antiproliferative activity against human A549 cells assessed as decrease in EdU positive cells at 4 uM measured after 14 days by Hoechst 33342 staining based fluorescence microscopic analysis; assay type: functional, cell-based; conditions: time 14.0 day
A549 [5] = experiment: Induction of intracellular ROS generation in human A549 cells upto 10 uM by DCFH-DA probe based fluorescence assay; assay type: functional, cell-based
NCI-H1299 [6] = experiment: Induction of intracellular ROS generation in human NCI-H1299 cells upto 10 uM by DCFH-DA probe based fluorescence assay; assay type: functional, cell-based
Mitochondrial membrane = experiment: Induction of mitochondrial membrane potential loss in human A549 cells assessed as increase in green fluorescence upto 10 uM incubated for 24 hrs by JC-1 staining based confocal microscopy analysis; assay type: cell membranes
A549 [7] = experiment: Induction of morphological changes in human A549 cells assessed as decrease in cell density upto 10 uM by AO/EB staining based analysis; assay type: functional
NCI-H1299 [8] = experiment: Induction of morphological changes in human NCI-H1299 cells assessed as decrease in cell density upto 10 uM by AO/EB staining based analysis; assay type: functional
A549 [9] = experiment: Induction of apoptosis in human A549 cells assessed as increase in green fluorescence intensity upto 10 uM by AO/EB staining based fluorescence microscopic analysis; assay type: functional, cell-based
NCI-H1299 [10] = experiment: Induction of apoptosis in human NCI-H1299 cells assessed as increase in green fluorescence intensity upto 10 uM by AO/EB staining based fluorescence microscopic analysis; assay type: functional, cell-based
A549 [11] = experiment: Induction of apoptosis in human A549 cells assessed as chromatin condensation upto 10 uM by Hoechst 33258 staining based fluorescence microscopic analysis; assay type: functional, cell-based
A549 [12] = experiment: Induction of apoptosis in human A549 cells assessed as viable cells at 2.5 uM measured after 48 hrs by Annexin V/FITC staining based flow cytometric analysis (reference value: 90.8 %); assay type: functional; conditions: read-out: Activity
A549 [13] = experiment: Induction of apoptosis in human A549 cells assessed as early apoptotic cells at 2.5 uM measured after 48 hrs by Annexin V/FITC staining based flow cytometric analysis (reference value: 1.31 %); assay type: functional
A549 [14] = experiment: Induction of apoptosis in human A549 cells assessed as late apoptotic cells at 2.5 uM measured after 48 hrs by Annexin V/FITC staining based flow cytometric analysis (reference value: 5.37%); assay type: functional
A549 [15] = experiment: Induction of apoptosis in human A549 cells assessed as necrotic cells at 2.5 uM measured after 48 hrs by Annexin V/FITC staining based flow cytometric analysis (reference value: 2.52 %); assay type: functional
A549 [16] = experiment: Induction of apoptosis in human A549 cells assessed as early apoptotic cells at 5 uM measured after 48 hrs by Annexin V/FITC staining based flow cytometric analysis (reference value: 1.31 %); assay type: functional
NCI-H1299 [17] = experiment: Induction of apoptosis in human NCI-H1299 cells assessed as viable cells at 2.5 uM measured after 48 hrs by Annexin V/FITC staining based flow cytometric analysis (reference value: 96.3%); assay type: functional; conditions: read-out: Activity
NCI-H1299 [18] = experiment: Induction of apoptosis in human NCI-H1299 cells assessed as early apoptotic cells at 2.5 uM measured after 48 hrs by Annexin V/FITC staining based flow cytometric analysis (reference value: 1.14 %); assay type: functional
NCI-H1299 [19] = experiment: Induction of apoptosis in human NCI-H1299 cells assessed as necrotic cells at 5 uM measured after 48 hrs by Annexin V/FITC staining based flow cytometric analysis (reference value: 0.62%); assay type: functional
NCI-H1299 [20] = experiment: Induction of apoptosis in human NCI-H1299 cells assessed as viable cells at 10 uM measured after 48 hrs by Annexin V/FITC staining based flow cytometric analysis (reference value: 96.3%); assay type: functional; conditions: read-out: Activity
NCI-H1299 [21] = experiment: Induction of apoptosis in human NCI-H1299 cells assessed as early apoptotic cells at 10 uM measured after 48 hrs by Annexin V/FITC staining based flow cytometric analysis (reference value: 1.14 %); assay type: functional
NCI-H1299 [22] = experiment: Induction of apoptosis in human NCI-H1299 cells assessed as increase in Bax expression at upto 10 uM incubated for 24 hrs by Western blot analysis; assay type: functional, cell-based
A549 [23] = experiment: Induction of apoptosis in human A549 cells assessed as decrease in BCl-2 expression at upto 10 uM incubated for 24 hrs by Western blot analysis; assay type: functional, cell-based
A549 [24] = experiment: Induction of ferroptosis in human A549 cells assessed as effect on SLC7A11 protein expression at 10 uM incubated for 24 hrs by Western blotting analysis; assay type: functional, cell-based
NCI-H1299 [25] = experiment: Induction of ferroptosis in human NCI-H1299 cells assessed as effect on GPX4 protein expression at 10 uM incubated for 24 hrs by Western blotting analysis; assay type: functional, cell-based
NCI-H1299 [26] = experiment: Induction of ROS accumulation in human TrxR1 knockdown NCI-H1299 cells incubated for 24 hrs; assay type: functional, cell-based
NCI-H1299 [27] = experiment: Antitumor activity against human NCI-H1299 cells xenografted in po dosed BALB/c mouse assessed as reduction in tumor growth administered every 2 days for 2 weeks; assay type: functional, organism-based; conditions: dose 5-10 mg/kg
NCI-H1299 [28] = experiment: Antitumor activity against human NCI-H1299 cells xenografted in BALB/c mouse assessed as reduction in tumor volume at 5 to 10 mg/kg, po administered every 2 days for 2 weeks; assay type: functional, organism-based; conditions: dose 5-10 mg/kg
[29] = Toxicity in BALB/c mouse assessed as body weight loss at 5 to 10 mg/kg, po administered every 2 days for 2 weeks; assay type: organism-based; conditions: in vivo, 336 h, dose 5-10 mg/kg
[30] = Toxicity in BALB/c mouse assessed as change in viscera index at 5 to 10 mg/kg, po administered every 2 days for 2 weeks; assay type: organism-based; conditions: in vivo, 336 h, dose 5-10 mg/kg
[31] = Toxicity in BALB/c mouse assessed as heart damage at 5 to 10 mg/kg, po administered every 2 days for 2 weeks by H and E staining based analysis; assay type: organism-based; conditions: in vivo, 336 h, dose 5-10 mg/kg
[32] = Toxicity in BALB/c mouse assessed as lung damage at 5 to 10 mg/kg, po administered every 2 days for 2 weeks by H and E staining based analysis; assay type: organism-based; conditions: in vivo, 336 h, dose 5-10 mg/kg
[33] = Toxicity in BALB/c mouse assessed as kidney damage at 5 to 10 mg/kg, po administered every 2 days for 2 weeks by H and E staining based analysis; assay type: organism-based; conditions: in vivo, 336 h, dose 5-10 mg/kg
NCI-H1299 [34] = experiment: Antitumor activity against human NCI-H1299 cells xenografted in BALB/c mouse assessed as decrease in Ki-67 expression at 5 to 10 mg/kg, po administered every 2 days for 2 weeks by IHC analysis; assay type: functional, organism-based; conditions: dose 5-10 mg/kg
[35] = Half life in male Sprague-Dawley rat at 10 mg/kg, iv measured upto 24 hrs by LC-MS/MS analysis; assay type: ADME, organism-based; conditions: in vivo
[36] = AUC (0 to t) in male Sprague-Dawley rat at 10 mg/kg, iv measured upto 24 hrs by LC-MS/MS analysis; assay type: ADME, organism-based; conditions: in vivo
[37] = MRT (0 to t) in male Sprague-Dawley rat at 10 mg/kg, iv measured upto 24 hrs by LC-MS/MS analysis; assay type: ADME, organism-based; conditions: in vivo

In the case of `CCCNC(=O)O[C@@H]1/C=C(\C)C[C@H]2C=C(C[C@@H]3OC(=O)[C@H](CSC(=S)N(C)C)[C@H]31)C(=O)O2`, the Activity (NSCLC [1]) was “Active”, the Activity (NSCLC [2]) was “Active” and the inhibition (A549 [3]) was “Active”. The Activity (A549 [4]) was “Active”, the Activity (A549 [5]) was “Active” and the Activity (NCI-H1299 [6]) was “Active”. The Activity (Mitochondrial membrane) was “Active”, the Activity (A549 [7]) was “Active” and the Activity (NCI-H1299 [8]) was “Active”. The Activity (A549 [9]) was “Active”, the Activity (NCI-H1299 [10]) was “Active” and the Activity (A549 [11]) was “Active”. For the same molecule, the viability at 2.5 µM (A549 [12]) was 87.7%, the Activity (A549 [13]) was 1.56% and the Activity (A549 [14]) was 6.69%. For the same molecule, the Activity (A549 [15]) was 4.09%, the Activity (A549 [16]) was 2.47% and the viability at 2.5 µM (NCI-H1299 [17]) was 89.7%. The Activity (NCI-H1299 [18]) was 1.67%, the Activity (NCI-H1299 [19]) was 1.45% and the viability at 10 µM (NCI-H1299 [20]) was 68.6%. The Activity (NCI-H1299 [21]) was 8.46%, the Activity (NCI-H1299 [22]) was “Active” and the Activity (A549 [23]) was “Active”. The Activity (A549 [24]) was “Active”, the Activity (NCI-H1299 [25]) was “Active” and the Activity (NCI-H1299 [26]) was “Active”. For the same molecule, the Activity (NCI-H1299 [27]) was “Dose-dependent-effect”, the Activity (NCI-H1299 [28]) was “Active” and the Activity [29] was “Non-toxic”. The Activity [30] was “Non-toxic”, the Activity [31] was “Non-toxic” and the Activity [32] was “Non-toxic”. For the same molecule, the Activity [33] was “Non-toxic”, the Activity (NCI-H1299 [34]) was “Active” and the half-life [35] was 3.85 h. The AUC(0-t) at 24 h [36] was 997 ng·h/mL and the MRT last at 24 h [37] was 4.15 h.
